Assay [1] deals with ICR mice. The assay can be described thus: Acute restraint stress - tail suspension test (Example 51a). The conditions noted are these: male ICR mice after 5 h acute restraint stress, IP, tested 10 min after treatment, FIGS. 6 and 7. It is filed as in vivo, mouse.
Description: Male ICR mice (23±3 g) were purchased from BioLASCO (Taipei, Taiwan) at 4-5 weeks of age and allowed 5-7 days to acclimate to the animal research facility at Pharmacology Discovery Services (Taipei, Taiwan). Mice were housed in groups of 10 in a large cage (47×25×15 cm) on a 12-hour light cycle (lights on: 0700) and provided ad libitum food and water except during acute restraint stress and tail-suspension testing. Temperature was maintained at 20-24° C., and all rooms (colony and testing rooms) had similar lighting intensity. […] All experiments were conducted between 0900 to 1700 local time, during the light phase. […]
Tail Suspension Test (TST) Procedure: Mice were individually suspended on the edge of a shelf, 58 cm above a tabletop, using adhesive tape placed approximately 1 cm from the tip of the tail, for a total duration of 7 minutes. Using a stopwatch, the experimenters blinded to treatment groups recorded the duration of immobility (defined as hanging passively and motionless) during the 5 minutes spanning from 2-7 minutes. The data from 0-2 minutes was not recorded. […]
Assay [2] has as its target T1, 5-HT2A (Homo sapiens, UniProt P28223).
T1 construct: host or cells: HEK293
The assay can be described thus: FLIPR Ca2+ flux functional assay, 5-HT2A (HEK293). It is filed as cell-based. The settings on record: HEK293 cells expressing 5-HT2A; for Emax: HEK293, agonist activity; for EC50: agonist activity. (In general: A change in cytosolic calcium serves as a functional read-out for many receptors and channels.)

Assay [3] addresses T2, 5-HT2B (Homo sapiens, UniProt P41595).
T2 construct: host or cells: CHO-K1
In words: Activation in a similar Ca2+ flux assay at a single concentration, 5-HT2B. The settings on record: head prints 10 µM. It is filed as cell-based. As to the method:
Activity at 5-HT2A, 5-HT2B and 5-HT2C receptors was determined using a FLIPR Ca2+ flux assay at WuXi AppTec Co. Ltd. (Hong Kong) Discovery Biology Unit according to their standard protocols. Briefly, stably transfected cells expressing the receptor of interest (HEK293 for 5-HT2A and 5-HT2C; CHO-K1 for 5-HT2B) were grown and plated in a 384 well plate and incubated at 37° C. and 5% CO2 overnight. A 250 mM stock solution of probenecid in FLIPR calcium assay buffer (10 mL) was freshly prepared and combined with a fluorescent dye (Fluo-4 Direct) to give a final assay concentration of 2.5 mM. Reference compounds were 4-fold serially diluted and the screening compounds were 3-fold serially diluted in 100% DMSO for 10 points using Agilent Bravo, and 750 nL was added to a 384 well compound plate using Echo along with 30 μL assay buffer. The fluorescent dye was then added to the assay plate along with assay buffer to a final volume of 40 μL. The cell plate was incubated for 50 min at 37° C. and 5% CO2 and placed into the FLIPR Tetra along with the compound plate. 10 μL of references and compounds were then transferred from the compound plate into the cell plate and the fluorescent signal was read.
Activation data are provided in a similar assay tested at a single 10 μM concentration.

Assay [4] has as its target T3, 5-HT2C (Homo sapiens, UniProt P28335).
T3 construct: host or cells: HEK293
T3 sequence (P28335 33-458): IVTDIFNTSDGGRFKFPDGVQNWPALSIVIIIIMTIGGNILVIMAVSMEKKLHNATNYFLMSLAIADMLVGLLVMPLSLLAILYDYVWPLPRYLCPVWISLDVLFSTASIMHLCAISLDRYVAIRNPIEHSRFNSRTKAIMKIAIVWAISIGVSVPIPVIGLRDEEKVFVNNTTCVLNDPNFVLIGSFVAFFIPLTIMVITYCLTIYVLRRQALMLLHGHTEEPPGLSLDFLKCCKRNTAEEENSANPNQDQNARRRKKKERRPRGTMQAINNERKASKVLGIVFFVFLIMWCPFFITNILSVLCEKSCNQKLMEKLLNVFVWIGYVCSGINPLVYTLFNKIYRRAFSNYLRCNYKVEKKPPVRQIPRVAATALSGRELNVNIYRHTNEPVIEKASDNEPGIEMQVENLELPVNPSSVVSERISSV
The assay can be described thus: FLIPR Ca2+ flux functional assay, 5-HT2C (HEK293). It is filed as cell-based. The conditions noted are these: HEK293 cells expressing 5-HT2C; for Emax: HEK293, agonist activity.

The target of assay [5] is T2, 5-HT2B. In words: FLIPR Ca2+ flux functional assay, 5-HT2B (CHO-K1). It is filed as cell-based. The conditions noted are these: CHO-K1 cells expressing 5-HT2B; for Emax: CHO-K1, agonist activity.

T2 sequence (P41595 whole entry, species assumed): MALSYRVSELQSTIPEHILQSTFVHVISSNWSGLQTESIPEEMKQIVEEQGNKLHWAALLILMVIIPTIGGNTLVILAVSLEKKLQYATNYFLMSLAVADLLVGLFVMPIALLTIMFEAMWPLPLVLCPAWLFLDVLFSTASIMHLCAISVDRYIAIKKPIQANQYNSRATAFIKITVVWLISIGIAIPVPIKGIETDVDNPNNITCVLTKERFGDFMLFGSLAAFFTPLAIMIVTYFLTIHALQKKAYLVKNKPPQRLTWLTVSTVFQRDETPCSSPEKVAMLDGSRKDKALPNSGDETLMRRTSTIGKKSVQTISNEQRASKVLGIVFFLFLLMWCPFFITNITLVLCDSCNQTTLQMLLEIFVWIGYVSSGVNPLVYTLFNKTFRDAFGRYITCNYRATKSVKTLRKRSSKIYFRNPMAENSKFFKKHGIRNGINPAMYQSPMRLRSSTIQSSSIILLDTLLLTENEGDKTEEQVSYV
T1 sequence (P28223 whole entry): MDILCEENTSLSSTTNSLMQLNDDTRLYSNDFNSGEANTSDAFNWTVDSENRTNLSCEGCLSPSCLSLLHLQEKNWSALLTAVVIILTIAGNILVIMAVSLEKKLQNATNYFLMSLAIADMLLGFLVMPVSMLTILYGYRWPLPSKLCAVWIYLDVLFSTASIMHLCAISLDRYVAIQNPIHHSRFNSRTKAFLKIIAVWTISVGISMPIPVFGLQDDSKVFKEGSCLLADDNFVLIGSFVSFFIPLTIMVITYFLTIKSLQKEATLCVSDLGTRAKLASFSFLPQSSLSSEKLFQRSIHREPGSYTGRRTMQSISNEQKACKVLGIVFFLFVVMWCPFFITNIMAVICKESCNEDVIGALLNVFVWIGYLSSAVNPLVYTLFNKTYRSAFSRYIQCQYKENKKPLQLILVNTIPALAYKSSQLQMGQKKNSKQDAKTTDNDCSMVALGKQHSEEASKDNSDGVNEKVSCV

What is called Emax is the size of the effect at its maximum, as opposed to the concentration needed. The term EC50 denotes the concentration at which the effect is half-maximal. High values mean a less potent agent, low ones a more potent agent. Turning to `COc1cc2c(CCN(C)C)n[nH]c2cc1F` [Example A5, 2-(6-fluoro-5-methoxy-1H-indazol-3-yl)-N,N-dimethylethan-1-amine], in assay [1], the “immobility time in tail suspension test” value was “decrease the immobility time”. Besides, the figures for the Emax in assay [2] and in assay [4] were 87% and 105%, respectively. Besides, the half-maximal effective concentration (EC50) in assay [2] came out at 44.1 nM; in assay [4] (agonist activity), 281 nM. Moreover, in assay [3], the “5-HT2B % Activation @ 10 µM” value was 44%.

With `COc1cc2c(CCN3CCC4CC43)n[nH]c2cc1F` (centres unmarked) [Example A60, 3-(2-(2-azabicyclo[3.1.0]hexan-2-yl)ethyl)-6-fluoro-5-methoxy-1H-indazole], the Emax in assay [2] is 92%; in assay [4] it was 90%. Moreover, the results for the EC50 in assay [2] and in assay [4] (agonist activity) were 8.12 nM and 255 nM, respectively. Moreover, the “5-HT2B % Activation @ 10 µM” value in assay [3] stood at 89%.

In the case of `COc1ccc2[nH]nc(CCNCc3ccccc3)c2c1` [Example A62, N-benzyl-2-(5-methoxy-1H-indazol-3-yl)ethan-1-amine], the Emax turned out to be 81% in assay [2] and 85% in assay [4]. In addition, the EC50 in assay [2] was found to be 29.1 nM; in assay [4] (agonist activity) it was 179 nM. Besides, in assay [3], the “5-HT2B % Activation @ 10 µM” value amounted to 0%.

Turning to `COc1ccc2[nH]nc(CCNCc3ccccc3OC)c2c1` [Example A63, 2-(5-methoxy-1H-indazol-3-yl)-N-(2-methoxybenzyl)ethan-1-amine], the Emax in assay [2] was 92%; in assay [4], 88%. Moreover, the EC50 in assay [2] is 2.24 nM; in assay [4] (agonist activity) it was 32.5 nM. Moreover, in assay [3], the “5-HT2B % Activation @ 10 µM” value is reported as 11%.

Turning to `COc1ccc2[nH]nc(CCNCc3ccccc3F)c2c1` [Example A64, N-(2-fluorobenzyl)-2-(5-methoxy-1H-indazol-3-yl)ethan-1-amine], the Emax came out at 79% in assay [2] and 82% in assay [4]. In addition, the EC50 in assay [2] was 68.7 nM; in assay [4] (agonist activity) it was 602 nM. Moreover, the “5-HT2B % Activation @ 10 µM” value in assay [3] is listed as 0%.

Turning to `COc1ccc2[nH]nc(CCNCc3cccc(F)c3)c2c1` [Example A65, N-(3-fluorobenzyl)-2-(5-methoxy-1H-indazol-3-yl)ethan-1-amine], the Emax worked out at 70% in assay [2] and 81% in assay [4]. Moreover, the results for the EC50 in assay [2] and in assay [4] (agonist activity) were 91.6 nM and 891 nM, respectively. Further, the “5-HT2B % Activation @ 10 µM” value in assay [3] is given as 1%.

Consider `COc1cccc(CNCCc2n[nH]c3ccc(OC)cc23)c1` [Example A66, 2-(5-methoxy-1H-indazol-3-yl)-N-(3-methoxybenzyl)ethan-1-amine], for which the Emax in assay [2] worked out at 63%; in assay [4], 53%. Also, the EC50 amounted to 50 nM in assay [2] and 1260 nM in assay [4] (agonist activity). Further, the “5-HT2B % Activation @ 10 µM” value in assay [3] is on record as 0%.

Consider `CN(C)CCc1n[nH]c2c(F)cccc12` [Example A67, 2-(7-fluoro-1H-indazol-3-yl)-N,N-dimethylethan-1-amine], for which the values for the Emax in assay [2] and in assay [4] were 63% and 37%, respectively. The EC50 in assay [2] turned out to be 422 nM; in assay [4] (agonist activity), 1670 nM. Further, the “5-HT2B % Activation @ 10 µM” value in assay [3] came out at 0%.

Regarding `CCN(C)CCc1n[nH]c2c(F)cccc12` [Example A68, N-ethyl-2-(7-fluoro-1H-indazol-3-yl)-N-methylethan-1-amine], the Emax in assay [2] came out at 40%; in assay [4] it was 32%. The EC50 was found to be 469 nM in assay [2] and 1920 nM in assay [4] (agonist activity). Also, in assay [3], the “5-HT2B % Activation @ 10 µM” value turned out to be 0%.

With `CN(C)CCc1n[nH]c2ccc(F)c(F)c12` [Example A69, 2-(4,5-difluoro-1H-indazol-3-yl)-N,N-dimethylethan-1-amine], the Emax in assay [2] was 79%; in assay [4] it was 62%. The half-maximal effective concentration (EC50) in assay [2] came to 276 nM; in assay [4] (agonist activity), 132 nM. Further, the “5-HT2B % Activation @ 10 µM” value in assay [3] is recorded as 5%.

As to `CCN(C)CCc1n[nH]c2ccc(F)c(F)c12` [Example A70, 2-(4,5-difluoro-1H-indazol-3-yl)-N-ethyl-N-methylethan-1-amine], the Emax in assay [2] is 78%; in assay [4] it was 76%. In addition, the EC50 is 383 nM in assay [2] and 226 nM in assay [4] (agonist activity). Further, in assay [3], the “5-HT2B % Activation @ 10 µM” value worked out at 0%.

As for `Fc1ccc2[nH]nc(CCN3CCCC3)c2c1F` [Example A73, 4,5-difluoro-3-(2-(pyrrolidin-1-yl)ethyl)-1H-indazole], the Emax in assay [2] worked out at 87%; in assay [4], 70%. The EC50 is 768 nM in assay [2] and 1780 nM in assay [4] (agonist activity). In addition, the “5-HT2B % Activation @ 10 µM” value in assay [3] worked out at 18%.

Regarding `COc1ccccc1CNCCc1n[nH]c2ccc(F)c(F)c12` [Example A74, 2-(4,5-difluoro-1H-indazol-3-yl)-N-(2-methoxybenzyl)ethan-1-amine], the results for the Emax in assay [2] and in assay [4] were 89% and 95%, respectively. Further, the values for the EC50 in assay [2] and in assay [4] (agonist activity) were 59.5 nM and 133 nM, respectively. In assay [3], the “5-HT2B % Activation @ 10 µM” value came out at 0%.

As for `CN(C)CCc1n[nH]c2cccc(O)c12` [Example P-6], in assay [5] (agonist activity), the “5-HT2B Emax” value was 0.34%. Besides, in assay [2], the Emax was found to be 66.4% and the response was half-maximal at 43.1 nM (EC50). In assay [4] (agonist activity), the “5-HT2C Emax” value is listed as −0.79%.

For `CN(C)CCc1n[nH]c2ccccc12` [Example P-7], the Emax is 0.17% in assay [5], -0.3% in assay [2] and 40.2% in assay [4].

On to `COc1ccc2[nH]nc(CCN(C)C)c2c1` [Example P-8, 2-(5-methoxy-1H-indazol-3-yl)-N,N-dimethylethan-1-amine], for which the Emax in assay [5] turned out to be 17.9%; in assay [2], 70%; in assay [4], 72.4%. In addition, the “immobility time in tail suspension test” value in assay [1] is recorded as “decrease the immobility time”.

Consider `CCN(CC)CCc1n[nH]c2cccc(OC)c12` [Example P-42, 2-(4-methoxy-1H-indazol-3-yl)-N,N-diethylethan-1-amine], for which the Emax in assay [5] was found to be 0.24%; in assay [2], 68.8%; in assay [4], 70.5%.

For `CCN(CC)CCc1n[nH]c2cccc(O)c12` [Example P-43, 3-(2-(diethylamino)ethyl)-1H-indazol-4-ol], the results for the Emax in assay [5], in assay [2] and in assay [4] were 8.01%, 38.9% and 28.8%, respectively.

With `CCCN(CCC)CCc1n[nH]c2cccc(OC)c12` [Example P-44, 2-(4-methoxy-1H-indazol-3-yl)-N,N-dipropylethan-1-amine], the Emax in assay [5] amounted to 39.4%; in assay [2] it was 97.6%; in assay [4], 77.2%.

`CCCN(CCC)CCc1n[nH]c2cccc(O)c12` [Example P-45, 3-(2-(dipropylamino)ethyl)-1H-indazol-4-ol]: the Emax in assay [5] came out at 8.93%; in assay [2] it was 100%; in assay [4], 40.2%.

Consider `CCN(CC)CCc1n[nH]c2ccc(OC)cc12` [Example P-48, N,N-diethyl-2-(5-methoxy-1H-indazol-3-yl)ethan-1-amine], for which the Emax in assay [5] came out at 16.1%; in assay [2], 58.6%; in assay [4], 4.22%.

As for `CCCN(CCC)CCc1n[nH]c2ccc(OC)cc12` [Example P-49, N,N-dipropyl-2-(5-methoxy-1H-indazol-3-yl)ethan-1-amine], the figures for the Emax in assay [5], in assay [2] and in assay [4] were 30.7%, 67.6% and -0.46%, respectively.

As for `CCN(C)CCc1n[nH]c2ccc(OC)cc12` [Example P-51, N-ethyl-2-(5-methoxy-1H-indazol-3-yl)-N-methylethan-1-amine], the values for the Emax in assay [5], in assay [2] and in assay [4] were 30.9%, 79.1% and 24.6%, respectively.

Take `COc1ccc2[nH]nc(CCN(C)C(C)C)c2c1` [Example P-52, N-(2-(5-methoxy-1H-indazol-3-yl)ethyl)-N-methylpropan-2-amine]: the Emax worked out at 0.22% in assay [5], 77.3% in assay [2] and 0.09% in assay [4].

In the case of `COc1cccc2[nH]nc(CCN(C)C)c12` [Example P-55, 2-(4-methoxy-1H-indazol-3-yl)-N,N-dimethylethan-1-amine], the values for the Emax in assay [5], in assay [2] and in assay [4] were 1.35%, 58.7% and 83.6%, respectively.

For the origin of these results see US12428380B2 (PSYLO PTY LTD, priority 2023, dated 2025).
